Assay results: ChEMBL document CHEMBL1909046, “DrugMatrix in vitro pharmacology data”

Columns and labels:
[1] = biological target: T1, Alpha-2C adrenergic receptor (Homo sapiens, UniProt P18825); assay: DRUGMATRIX: Adrenergic Alpha-2C radioligand binding (ligand: [3H] MK-912); assay type: cell membranes, Sf9, Membrane
T1 sequence (P18825 whole entry): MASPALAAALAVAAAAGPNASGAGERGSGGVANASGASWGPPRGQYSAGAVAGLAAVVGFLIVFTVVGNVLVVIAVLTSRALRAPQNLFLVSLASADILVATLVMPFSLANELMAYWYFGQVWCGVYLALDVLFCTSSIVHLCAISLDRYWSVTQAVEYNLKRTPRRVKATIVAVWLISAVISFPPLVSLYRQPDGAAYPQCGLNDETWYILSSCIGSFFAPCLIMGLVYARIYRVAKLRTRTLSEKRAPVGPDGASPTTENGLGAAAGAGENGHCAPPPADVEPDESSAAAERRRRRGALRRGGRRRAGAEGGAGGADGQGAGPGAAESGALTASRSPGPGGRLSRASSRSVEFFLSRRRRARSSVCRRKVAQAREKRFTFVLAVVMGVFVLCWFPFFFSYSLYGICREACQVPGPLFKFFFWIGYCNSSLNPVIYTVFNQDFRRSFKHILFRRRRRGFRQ

[2] = DRUGMATRIX: Calcium Channel Type L, Dihydropyridine radioligand binding (ligand: [3H] Nitrendipine); assay type: cell membranes, Rattus norvegicus, Wistar, Cerebral cortex, Membrane; conditions: Not Active = under 50% inhibition at 10 µM
[3] = biological target: T2, C-C chemokine receptor type 4 (Homo sapiens, UniProt P51679); assay type: cell membranes, Chem-1, Membrane; conditions: chem-1; further: in other assays of this panel Not Active means under 50% inhibition at 10 µM
T2 sequence (P51679 whole entry): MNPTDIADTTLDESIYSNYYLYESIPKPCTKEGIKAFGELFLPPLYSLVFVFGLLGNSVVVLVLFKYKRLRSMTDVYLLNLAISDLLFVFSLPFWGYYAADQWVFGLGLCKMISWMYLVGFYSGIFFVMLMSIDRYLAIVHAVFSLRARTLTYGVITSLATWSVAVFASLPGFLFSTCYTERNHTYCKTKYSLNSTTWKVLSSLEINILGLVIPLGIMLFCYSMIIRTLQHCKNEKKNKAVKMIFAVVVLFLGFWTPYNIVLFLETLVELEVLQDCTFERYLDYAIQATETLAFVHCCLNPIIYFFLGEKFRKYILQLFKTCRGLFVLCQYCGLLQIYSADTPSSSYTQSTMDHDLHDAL

[4] = biological target: Prostaglandin G/H synthase 1 (Homo sapiens, UniProt P23219); assay: biochemical; assay type: tissue-based, Platelet; conditions: platelet;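 further: inhibition of COX-1 enzyme activity, with arachidonic acid supplied as substrate; in other assays of this panel Not Active means under 50% inhibition at 10 µM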
[5] = DRUGMATRIX: Glutamate, AMPA radioligand binding (ligand: [3H] AMPA); assay type: cell membranes, Rattus norvegicus, Wistar, Cerebral cortex, Membrane; conditions: Not Active = under 50% inhibition at 10 µM
[6] = DRUGMATRIX: Phosphodiesterase PDE4 enzyme inhibition (substrate: [3H]cAMP + cAMP); conditions: u-937; Not Active = under 50% inhibition at 10 µM
[7] = biological target: Protein phosphatase 3 catalytic subunit alpha (Homo sapiens, UniProt Q08209); set-up: species or system Escherichia coli;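 further: inhibition of calcineurin (PP2B) enzyme activity, measured with DiFMUP as the substrate; in other assays of this panel Not Active means under 50% inhibition at 10 µM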

Prostaglandin G/H synthase 1, sequence (P23219 whole entry): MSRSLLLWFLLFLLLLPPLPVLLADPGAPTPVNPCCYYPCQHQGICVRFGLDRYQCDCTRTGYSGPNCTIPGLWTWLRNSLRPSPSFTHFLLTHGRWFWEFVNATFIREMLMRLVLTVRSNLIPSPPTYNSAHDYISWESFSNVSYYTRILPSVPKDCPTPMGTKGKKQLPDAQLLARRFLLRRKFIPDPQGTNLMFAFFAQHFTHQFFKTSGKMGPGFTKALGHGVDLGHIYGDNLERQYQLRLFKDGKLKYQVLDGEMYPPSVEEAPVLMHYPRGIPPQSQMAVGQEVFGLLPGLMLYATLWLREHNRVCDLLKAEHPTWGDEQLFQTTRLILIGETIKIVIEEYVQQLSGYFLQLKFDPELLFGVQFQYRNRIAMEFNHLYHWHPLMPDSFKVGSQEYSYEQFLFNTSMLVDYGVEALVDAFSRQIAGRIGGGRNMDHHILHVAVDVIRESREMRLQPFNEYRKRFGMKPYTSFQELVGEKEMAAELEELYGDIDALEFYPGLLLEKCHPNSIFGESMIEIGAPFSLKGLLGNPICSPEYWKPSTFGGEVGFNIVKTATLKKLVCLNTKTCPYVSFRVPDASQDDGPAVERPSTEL

Row | Compound | IC50 ([1]; sf9) | IC50 [2] | Ki [2] | IC50 [3] | IC50 [4] | IC50 [5] | Ki [5] | IC50 [6] | Ki [6] | IC50 [7] | Ki ([1]; sf9) | Ki [3] | Ki [4] | Ki [7] | IC50 ([1]; read-out: IC50) [nM] | Ki ([1]; read-out: Ki) [nM]
1 | CO[C@H]1O[C@@H]2O[C@@]3(C)CC[C@H]4[C@H](C)CC[C@@H]([C@H]1C)[C@@]24OO3 | Not Active | Not Active | Not Active | Not Active | Not Active | Not Active | Not Active | Not Active | Not Active | Not Active |  |  |  |  |  | 
2 | Nc1ccc(C(=O)O)c(O)c1 [AMINOSALICYLIC ACID] | Not Active | Not Active | Not Active | Not Active | Not Active | Not Active | Not Active | Not Active | Not Active | Not Active |  |  |  |  |  | 
3 | Nc1nc(F)nc2c1ncn2[C@@H]1O[C@H](CO)[C@@H](O)[C@@H]1O [FLUDARABINE] | Not Active | Not Active | Not Active | Not Active | Not Active | Not Active | Not Active | Not Active | Not Active | Not Active |  |  |  |  |  | 
4 | CHROMIC CHLORIDE | Not Active | Not Active | Not Active | Not Active | Not Active | Not Active | Not Active | Not Active | Not Active | Not Active | Not Active | Not Active | Not Active | Not Active |  | 
5 | O=C(O)CO [GLYCOLIC ACID] | Not Active | Not Active | Not Active | Not Active | Not Active | Not Active | Not Active | Not Active | Not Active | Not Active |  |  |  |  |  | 
6 | COC(=O)C[C@](O)(CCC(C)(C)O)C(=O)O[C@@H]1C(OC)=C[C@]23CCCN2CCc2cc4c(cc2[C@H]13)OCO4 [HARRINGTONINE] | Not Active | Not Active | Not Active | Not Active | Not Active | Not Active | Not Active | Not Active | Not Active | Not Active |  |  |  |  |  | 
7 | CC12CCC(CC1=O)C2(C)C (centres undefined) [CAMPHOR] | Not Active | Not Active | Not Active | Not Active | Not Active | Not Active | Not Active | Not Active | Not Active | Not Active |  |  |  |  |  | 
8 | CCN1CCN(C(=O)N[C@@H](C(=O)N[C@@H]2C(=O)N3[C@@H]2SC(C)(C)[C@@H]3C(=O)O)c2ccccc2)C(=O)C1=O [PIPERACILLIN] | Not Active | Not Active | Not Active | Not Active | Not Active | Not Active | Not Active | Not Active | Not Active | Not Active |  |  |  |  |  | 
9 | C=CCO [ALLYL ALCOHOL] | Not Active | Not Active | Not Active | Not Active | Not Active | Not Active | Not Active | Not Active | Not Active | Not Active |  |  |  |  |  | 
10 | c1ccc2sc(SSc3nc4ccccc4s3)nc2c1 [BENZOTHIAZYL DISULFIDE] |  | Not Active | Not Active | Not Active | Not Active | Not Active | Not Active | Not Active | Not Active | Not Active |  |  |  |  | 1660 | 241
11 | O=C1CN(/N=C/c2ccc([N+](=O)[O-])o2)C(=O)N1 [NITROFURANTOIN] | Not Active | Not Active | Not Active | Not Active | Not Active | Not Active | Not Active | Not Active | Not Active | Not Active |  |  |  |  |  | 
12 | NCC(CC(=O)O)c1ccc(Cl)cc1 (centres undefined) [BACLOFEN] | Not Active | Not Active | Not Active | Not Active | Not Active | Not Active | Not Active | Not Active | Not Active | Not Active |  |  |  |  |  | 
13 | OC[C@H]1O[C@@H]2O[C@H]3[C@H](O)[C@@H](O)[C@@H](O[C@H]4[C@H](O)[C@@H](O)[C@@H](O[C@H]5[C@H](O)[C@@H](O)[C@@H](O[C@H]6[C@H](O)[C@@H](O)[C@@H](O[C@H]7[C@H](O)[C@@H](O)[C@@H](O[C@H]8[C@H](O)[C@@H](O)[C@@H](O[C@H]1[C@H](O)[C@H]2O)O[C@@H]8CO)O[C@@H]7CO)O[C@@H]6CO)O[C@@H]5CO)O[C@@H]4CO)O[C@@H]3CO [BETADEX] | Not Active | Not Active | Not Active | Not Active | Not Active | Not Active | Not Active | Not Active | Not Active | Not Active |  |  |  |  |  | 
14 | CC(C)NCC(O)COc1ccc(CC(N)=O)cc1 (centres undefined) [ATENOLOL] | Not Active | Not Active | Not Active | Not Active | Not Active | Not Active | Not Active | Not Active | Not Active | Not Active |  |  |  |  |  | 
15 | Cl.NC[C@H]1CC[C@H](C(=O)Oc2ccc(CCC(=O)O)cc2)CC1 [CETRAXATE HYDROCHLORIDE] | Not Active | Not Active | Not Active | Not Active | Not Active | Not Active | Not Active | Not Active | Not Active | Not Active |  |  |  |  |  | 
16 | O=C(NCCN1CCOCC1)c1ccc(Cl)cc1 [MOCLOBEMIDE] | Not Active | Not Active | Not Active | Not Active | Not Active | Not Active | Not Active | Not Active | Not Active | Not Active |  |  |  |  |  | 
17 | CARBOXYMETHYLCELLULOSE | Not Active | Not Active | Not Active | Not Active | Not Active | Not Active | Not Active | Not Active | Not Active | Not Active | Not Active | Not Active | Not Active | Not Active |  | 
18 | C[C@@H]1[C@H](O)[C@@H](C)/C=C/C=C/C=C/C=C/C=C/C=C/C=C/[C@H](O[C@@H]2O[C@H](C)[C@@H](O)[C@H](N)[C@@H]2O)C[C@@H]2O[C@](O)(C[C@@H](O)C[C@@H](O)[C@H](O)CC[C@@H](O)C[C@@H](O)CC(=O)O[C@H]1C)C[C@H](O)[C@H]2C(=O)O [AMPHOTERICIN B] | Not Active | Not Active | Not Active | Not Active | Not Active | Not Active | Not Active | Not Active | Not Active | Not Active |  |  |  |  |  | 
19 | CCN(CCO)CCCC(C)Nc1ccnc2cc(Cl)ccc12 (centres undefined) [HYDROXYCHLOROQUINE] | Not Active | Not Active | Not Active | Not Active | Not Active | Not Active | Not Active | Not Active | Not Active | Not Active |  |  |  |  |  | 
20 | CCC1(c2ccccc2)C(=O)NC(=O)NC1=O [PHENOBARBITAL] | Not Active | Not Active | Not Active | Not Active | Not Active | Not Active | Not Active | Not Active | Not Active | Not Active |  |  |  |  |  | 
21 | C=CCN1CC[C@]23c4c5ccc(O)c4O[C@H]2/C(=N/N=C2\CC[C@@]4(O)[C@H]6Cc7ccc(O)c8c7[C@@]4(CCN6CC=C)[C@H]2O8)CC[C@@]3(O)[C@H]1C5 [NALOXONAZINE] | Not Active | Not Active | Not Active | Not Active | Not Active | Not Active | Not Active | Not Active | Not Active | Not Active |  |  |  |  |  | 
22 | CC(C)(C#N)c1cc(Cn2cncn2)cc(C(C)(C)C#N)c1 [ANASTROZOLE] | Not Active | Not Active | Not Active | Not Active | Not Active | Not Active | Not Active | Not Active | Not Active | Not Active |  |  |  |  |  | 
